Measurements: PubChem BioAssay AID720587 (Broad Institute, 2013)
Activity calls are given as the source filed them.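 Rule for the calls: active = fitted curve reaches -35% activity change at a concentration below twice the top valid dose tested; inactive = the rest, including effects opposite to the expected direction.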

Experiment: A673 Ewing sarcoma viability loss – cell-based, CellTiter-Glo luminescence, cherry-pick retest, confirmation (AID 720587)
Conditions: A673 Ewing sarcoma viability, CellTiter-Glo ATP luminescence, 72 h; at 26 µM (top of the series)

SMILES	activity change, negative = cytotoxicity
CCCn1nnc(NC(=S)NC(=O)C(C)(C)C)n1	-3.83% (inactive)
O=C(O)c1ccc(N/N=C/c2cc(Br)cs2)cc1	-5.62% (inactive)
COc1ccc(Nc2ncnc3ccc(Br)cc23)c(OC)c1	-5.17% (inactive)
COc1ccccc1-c1cn(CC[C@H]2CC[C@@H](NC(=O)C3CCCC3)[C@@H](CO)O2)nn1	6.63% (inactive)
COc1ccccc1/C=C1\SC(=S)N(CCC(=O)Nc2cc(C)on2)C1=O	6.59% (inactive)
COc1ccc(C=NNc2nc3ccccc3s2)cc1	3.07% (inactive)
CC(=O)Nc1ccc(OCC(=O)N(CC(C)C)C2CCS(=O)(=O)C2)cc1 (stereo not given)	8.05% (inactive)
COC(=O)c1c(C)[nH]c(/C=N/Nc2ccccc2)c1C	5.78% (inactive)
COC(=O)Cc1ccc(NC(=O)c2ccccc2Cl)cc1	5% (inactive)
O=C(CN1C(=O)C(=O)c2ccccc21)c1ccc(Cl)cc1	-6.17% (inactive)
N#C[C@H]1[C@H](c2ccc(C#Cc3ccccc3F)cc2)[C@@H](CO)N1C(=O)C1CCOCC1	-1.72% (inactive)
Cc1ccc(/C=N/Nc2ccc3ccccc3n2)o1	-3.75% (inactive)
N/C(Cc1nc(-c2ccc(F)cc2)cs1)=N\O	-2.03% (inactive)
CCCNC(=O)N1[C@H](C#N)[C@H](c2ccc(C#Cc3ccc(F)cc3)cc2)[C@H]1CO	-13.6% (inactive)
CCc1cnc(N2[C@H](C#N)[C@H](c3ccc(C#Cc4ccccc4F)cc3)[C@H]2CO)s1	-10.8% (inactive)
CCc1ccc(/C=C2\SC(=S)N(CCCC(=O)Nc3cc(C)on3)C2=O)cc1	-3.29% (inactive)
Cc1csc(NC(=O)CCc2c(C)nc3cc(-c4ccc(Cl)cc4)nn3c2C)n1	1.02% (inactive)
C[C@@H]1CN([C@H](C)CO)C(=O)c2cc(NC(=O)CCCCCC(=O)Nc3ccccc3N)ccc2O[C@H]1CN(C)S(=O)(=O)c1ccc(Cl)cc1	-2.24% (inactive)
CCc1ccc(/C=C2\SC(=S)N(CCCC(=O)NC3=NCCS3)C2=O)cc1	1.62% (inactive)
COC(=O)C[C@@H]1CC[C@@H]2[C@@H](COc3ccc(NC(=O)Cc4cccs4)cc3C(=O)N2C)O1	-23.4% (inactive)

SMILES	activity change, negative = cytotoxicity
CC(=O)c1ccc(N=Nc2ccc(C)cc2)cc1	2.05% (inactive)
CCOc1ccc(C(c2c(NC(=O)c3ccccc3)sc(C)c2C)N2CCN(CCO)CC2)cc1 (stereo not given)	9.4% (inactive)
C[C@@H]1CN([C@H](C)CO)C(=O)c2cc(C#CCc3ccccc3)cnc2O[C@@H]1CN(C)Cc1cccc(F)c1	-13.4% (inactive)
O=C(NCCc1ccccc1)c1ccccc1NC(=O)C1CCCO1 (stereo not given)	0.338% (inactive)
O=C(NC1CCCC1)C(c1ccccc1)n1c(CSCCOc2ccccc2)nc2ccccc21 (stereo not given)	-7.19% (inactive)
COc1ccc(NC(=O)c2cc3ccccc3oc2=O)cc1	-20.8% (inactive)
Cc1ccsc1C(=O)OCC(=O)NCCC1=CCCCC1	2.01% (inactive)
COC(=O)C[C@@H]1CC[C@@H]2[C@H](COc3ccc(NC(=O)c4cc(F)cc(F)c4)cc3C(=O)N2C)O1	-0.378% (inactive)
Nc1ccc(Oc2cccc(Oc3ccc(N)cc3)c2)cc1	-3.72% (inactive)
COc1ccc(Cl)cc1S(=O)(=O)Nc1ccc2c(c1)n(C)c(=O)n2C	-1.58% (inactive)
C=CC[n+]1c(-c2ccc(C)cc2)csc1Nc1ccc(NC(C)=O)cc1	-9.93% (inactive)
O=C(CCCCl)Nc1nc(-c2ccc3c(c2)OCCO3)cs1	10.2% (inactive)
C(=C\c1ccc(C2[C@H]3CNC[C@@H]2N3Cc2ccccn2)cc1)/c1ccccc1 (stereo not given in full)	-3.03% (inactive)
CCC(C)Cn1c(O)cc2nn(-c3nc4ccccc4s3)c(=O)c-2c1C (stereo not given)	-13.1% (inactive)
CC(C)CC(NC(=O)c1cccs1)c1nnc(SCc2ccc(Cl)c(Cl)c2)n1C (stereo not given)	6.55% (inactive)
CN(C)c1ccc(N=Nc2ccccc2Br)cc1	-10.3% (inactive)
COC(=O)COc1ccc(-c2nccc(-c3ccccn3)n2)cc1	11.6% (inactive)
CCOc1ccc(-c2noc(CCC(=O)O)n2)cc1	6.68% (inactive)
COC(=O)C[C@@H]1CC[C@@H]2[C@H](COc3ccc(NC(=O)c4ccccc4)cc3C(=O)N2C)O1	-5.14% (inactive)
C[C@H]1CN([C@@H](C)CO)C(=O)c2cc(NS(=O)(=O)c3ccc(Cl)cc3)ccc2O[C@H]1CN(C)Cc1ccc(Cl)c(Cl)c1	4.93% (inactive)
